Converted amounts (≈) assume the structure as drawn. Where two headings read alike, the source gives them in different places.
Tests used:
[1] = system: 5-HTP behavioural syndrome; assay: 5-HTP response potentiation test; assay type: in vivo, mice; details: Mus musculus, read-out: Potentiation of 5-HTP effective dose
Procedure: Inhibition of the uptake of 5-HT potentiates the effects of administered 5-hydroxytryptophan (5-HTP) probably by increasing the amount of 5-HT at the receptor. Three mice are given the test drugs one hour (or 4, 24 hours) before dl-5-HTP 90 mg/kg i.v. 5-HTP alone gives only a weak behavioural syndrome but in pretreated mice there is seen a characteristic behavioural syndrome, which comes within five minutes: tremor, lordosis, abduction of the hindlegs, head-twiches. The strength of the syndrome is scored from 0 to +3. Each group consists of 3 animals and at least 4 groups were tested at 25 mg/kg i.p. Control groups receiving imipramine (Tofranil®) are used as reference, since imipramine constantly potentiated dl-5-HTP. The least dose of the test compound producing maximal score (+3) in all animals is estimated from a logarithmic dose-response curve, and is denoted "effective dose" in the following Table.

uptake of 14C-5-HT [2] = assay: Inhibition of uptake of 14C-5-HT in vivo (drug given i.p., uptake measured in midbrain slices); details: Mus musculus, ip, 0.5 h, mice dosed i.p. half an hour before killing, 5-HT 1×10^-7 M, read-out: Inhibition (50%) of uptake in vivo 5-HT
Procedure: (§1) The method is described by Ross, Renyi and Ogren in European Journal of Pharmacology 17 (1972), 107-112. […] In the in vitro experiments different concentrations of the test compound were added to the incubation medium. In the in vivo experiments different doses of the test drug were administered intraperitoneally half an hour before the animals were killed. The incubation performance was the same in the two types of experiments, i.e. the midbrain was taken out and sliced and incubated in a mixture consisting of, per 100 mg of brain slices, 0.2 n-mole of ^14 C-5-HT, 0.2 n-mole of ^3 H-NA and 11μ mole of glucose in 2 ml of Krebs-Henseleit buffer, pH 7.4. The incubation time was 5 minutes. The radioactive amines taken up in the slices were dissolved in Soluene-350® (Packard) and the amounts were determined with the double labelling technique by liquid scintillation. The concentration or dose producing 50 percent decrease of the active uptake (ED50) was determined graphically from dose response curves. Active uptake is defined as that part of the radioactive uptake which is inhibited by a high concentration of cocaine. All doses were given at least to four animals.

uptake of 14C-5-HT [3] = assay: Inhibition of uptake of 14C-5-HT in vitro (mouse midbrain slices); assay type: cell-based, mice; details: 5 min, read-out: Inhibition (50%) of uptake in vitro 5-HT
Procedure: (§2) The method is described by Ross, Renyi and Ogren in European Journal of Pharmacology 17 (1972), 107-112. Tricyclic antidepressant drugs of type imipramine added in vitro or given in vivo to mice decrease the uptake of ^14 C-5-HT and ^3 H-NA in vitro. In the in vitro experiments different concentrations of the test compound were added to the incubation medium. In the in vivo experiments different doses of the test drug were administered intraperitoneally half an hour before the animals were killed. The incubation performance was the same in the two types of experiments, i.e. the midbrain was taken out and sliced and incubated in a mixture consisting of, per 100 mg of brain slices, 0.2 n-mole of ^14 C-5-HT, 0.2 n-mole of ^3 H-NA and 11μ mole of glucose in 2 ml of Krebs-Henseleit buffer, pH 7.4. The incubation time was 5 minutes. The radioactive amines taken up in the slices were dissolved in Soluene-350® (Packard) and the amounts were determined with the double labelling technique by liquid scintillation. The concentration or dose producing 50 percent decrease of the active uptake (ED50) was determined graphically from dose response curves. Active uptake is defined as that part of the radioactive uptake which is inhibited by a high concentration of cocaine. All doses were given at least to four animals.

uptake of 3H-NA [4] = assay: Inhibition of uptake of 3H-noradrenaline in vitro (mouse midbrain slices); assay type: cell-based, mice; details: 5 min, compound added to incubation medium, l-noradrenaline 1×10^-7 M, 5 min incubation, ED50 from dose response curves, read-out: Inhibition (50%) of uptake in vitro NA
Procedure: as §2

uptake of 3H-NA [5] = assay: Inhibition of uptake of 3H-noradrenaline in vivo (drug given i.p., uptake measured in midbrain slices); details: Mus musculus, ip, 0.5 h, mice dosed i.p. half an hour before killing, l-noradrenaline 1×10^-7 M, read-out: Inhibition (50%) of uptake in vivo NA
Procedure: as §1

Compound	minimal effective dose [1]	ED50 (uptake of 14C-5-HT [2])	IC50 (uptake of 14C-5-HT [3]; Mus musculus)	IC50 (uptake of 3H-NA [4])	ED50 (uptake of 3H-NA [5])	minimal effective dose ([1]; mice, least dose producing maximal score (+3) in all animals, test drug given before dl-5-HTP 90 mg/kg i.v.)	IC50 (uptake of 14C-5-HT [3]; compound added to incubation medium, mouse midbrain slices, 5-HT 1×10^-7 M, 5 min incubation, ED50 from dose response curves)
CN(C)CCCN1c2ccccc2CCc2ccccc21 [Imipramine, imipramine]	15 mg/kg	24 mg/kg	0.1 µg/mL (≈ 0.357 µM)	0.06 µg/mL (≈ 0.214 µM)	6 mg/kg	–	–
CC(N)C(=O)CC(C)(C)Cc1ccc(Cl)cc1.Cl (stereo not shown) [GEA 995, 2-amino-6-(4-chlorophenyl)-5,5-dimethyl-3-hexanone hydrochloride]	–	20 mg/kg	–	> 10 µg/mL	> 40 mg/kg	4 mg/kg	0.6 µg/mL

Source: US4177291A, “Compounds having antidepressive activity” (priority 1976, dated 1979)
